# Target: amyloid plaques (Homo sapiens, UniProt P05067)
# Assay: In vivo staining after intraperitoneal injection in PS/APP Tg mice, sections viewed under fluorescent microscope
# Set-up: from tissue; host or cells: brain of PS/APP (APP/PS1) transgenic mice, as sections or in vivo
# Description: Methods used: Five groups each of 6-month-old PS/APP Tg mice were tested (which have abundant amyloid plaques) with the compounds of the present invention. The mice received an intraperitoneal injection of compounds 23, 8 or 8F (30 μg/gram). They were sacrificed 24 hours later by ip injection of sodium pentobarbital (150 mg/kg). All animals were transcardially perfused with 20 ml of 0.1 M phosphate buffered saline (pH 7.4) with the addition of heparin followed by 80 ml of 4% formaldehyde in 0.1 M phosphate buffer. The brain was removed from the skull, cryoprotected using increasing concentrations of sucrose, and cut into serial 40-μm-thick coronal section on a freezing microtome (Leica SM2400, Nussloch, Germany). Anti-amyloid β immunohistochemistry was performed on free-floating sections, using our previously published protocols^20-23. In brief, endogenous peroxidase activity was quenched in a bath with 0.3% H2O2 for 30 min. Unspecific staining was blocked by incubation in the blocking solution provided as a part of “Mouse on mouse” kit (Vector Elite staining kit, Vector Laboratories, Burlingame, Calif.). This procedure allows for detection of antigens in murine tissue using mouse mAb avoiding substantial background. Concentration of all mAbs was 0.25 mg/ml with the total concentration of protein in a stock solution of 1 mg/ml as assessed by a Coomasie colorimetric assay. 1:2000 dilution of the stock solution was used. Primary antibodies were applied for 30 minutes followed by thorough washing and the anti-mouse IgG biotinylated secondary antibody according to the kit manufacturer instruction. For fluorescent microscopy sections were incubated with streptavidin conjugated with Cy3 (1:400; Sigma, St. Louis Mo.) whereas for light microscopy they were incubated with avidin-horseradish peroxidase complex and developed using 3,3′-diaminobenzidine kit with nickel ammonium sulfate (Vector Laboratories, Burlingame, Calif.). Following immunostaining, sections were carried on slides, air-dried, and cover-slipped. […]
# [1] = AD mice, in vivo injection, sacrificed 24 hours after injection
# amyloid plaques, sequence (P05067 672-713 limits assumed): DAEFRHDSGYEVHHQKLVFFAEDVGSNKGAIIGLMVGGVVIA
structure (smiles),measurement,setting,value
COc1ccc2nc(/C=C/c3ccc(-c4ccc(F)cc4)cc3)ccc2c1 [compound 8F],ability to cross the blood brain barrier,[1],able to cross the blood brain barrier
same,labeling of amyloid plaques in vivo,[1],label amyloid plaques in vivo
same,effectiveness in blood-brain barrier permeability and labeling amyloid plaques in tissue sections and in vivo,AD model transgenic mice,most effective
